Test results reported in PubChem BioAssay AID504703 (Southern Research Specialized Biocontainment Screening …, 2011).
Several values for one entry are separate records, joined by “and”; a condition that tells them apart may be missing. Identical values can stand only once. Activity calls are given as the source filed them. The rule behind the calls is not given here.

Tested on: M. tuberculosis H37Rv growth inhibition with meropenem
Test: M. tuberculosis growth inhibition, H37Rv, set 2, dose response (AID 504703);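 note: growth ran 7 days at 37 °C then overnight with Alamar Blue before reading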
[1] = M. tuberculosis H37Rv growth inhibition, measured here: IC50 without meropenem
[2] = M. tuberculosis H37Rv growth inhibition, measured here: IC90 without meropenem
[3] = measured here: IC90 with meropenem

Row | SMILES | IC50 [1] | IC90 [2] [µM] | IC90 [3] | IC50
1 | O=C(COc1ccccc1Cl)Nc1nc2ccccc2s1 | > 25 µM | > 25 | – | –
2 | CC(=O)c1c(C)n(-c2ccccc2)c2ccc(OC(C)C)cc12 | > 25 µM | > 25 | – | –
3 | Cc1cc2cc(Cl)ccc2n1-c1ccccc1 | > 25 µM | > 25 | – | –
4 | Cc1cccc(C)c1OCC(=O)Nc1nc2ccc(Cl)cc2s1 | > 25 µM | > 25 | – | –
5 | CCOc1ccc2[nH]c(C)cc2c1 | > 25 µM | > 25 | – | –
6 | Cc1cc(C)c(OCC(=O)Nc2nc3ccccc3s2)c(Cl)c1 | > 25 µM | > 25 | – | –
7 | CC(=O)c1c(C)n(-c2cccc(Cl)c2)c2ccc(O)cc12 | > 25 µM | > 25 | – | –
8 | CCC(=O)N/C(N)=N/c1nc2ccccc2o1 | > 25 µM | > 25 | – | –
9 | COc1ccc2nc(NC(=O)COc3ccccc3)sc2c1 | > 25 µM | > 25 | – | –
10 | CCOc1ccc2c(c1)c(CC)c(C)n2-c1ccccc1 | > 25 µM | > 25 | > 25 µM | –
11 | O=C(Cc1ccccc1Cl)Nc1nc2ccccc2[nH]1 | > 18.8 µM and 16.4 µM | > 25 | > 25 µM | 18.9 µM (inactive)
12 | Cc1ccccc1OCC(=O)Nc1ccccc1N1CCCCC1 | > 25 µM | > 25 | > 25 µM | –
13 | CCOc1ccc2nc(NC(=O)COc3ccc(F)cc3)sc2c1 | > 25 µM | > 25 | – | –
14 | O=C(CC12CC3CC(CC(C3)C1)C2)NCc1ccc(F)cc1 | > 25 µM | > 25 | – | –
15 | CC(C)(C)c1ccc(OCC(=O)Nc2nc3ccccc3s2)cc1 | > 25 µM | > 25 | – | –
16 | COC(=O)c1ccc2nc(NC(=O)COc3ccccc3)sc2c1 | > 25 µM | > 25 | – | –
17 | O=C(OC(C(=O)Nc1ccc(Cl)cc1C(F)(F)F)c1ccccc1)C1=COCCO1 (stereo not given) | 16.9 µM | > 25 | > 25 µM | –
18 | Cc1cc2cc(F)ccc2n1-c1ccccc1 | > 25 µM | > 25 | – | –
19 | Cc1ccccc1OCC(=O)Nc1noc(-c2ccccc2)n1 | > 25 µM | > 25 | – | –
20 | O=C(CSc1n[nH]c(=O)n1C1CC1)c1ccc2c(c1)OCCO2 | 10.8 µM | > 25 | > 25 µM | 4.57 µM (inactive)
21 | CCOc1ccc2nc(NC(=O)C(C)Oc3ccccc3F)sc2c1 (stereo not given) | > 25 µM | > 25 | – | –

Row | SMILES | IC50 [1] | IC90 [2] [µM] | IC90 [3] | IC50
22 | O=C(COc1ccc(Cl)cc1)Nc1nc2ccc(F)cc2s1 | > 25 µM | > 25 | – | –
23 | Cc1ccccc1C(=O)Nc1nc2ccccc2[nH]1 | 17.9 µM | > 25 | > 25 µM | 8.75 µM (inactive)
24 | COc1cccc(NC(=O)C2CC2)c1 | > 25 µM | > 25 | > 25 µM | –
25 | CCCOc1ccc2c(c1)c(C(C)=O)c(C)n2-c1ccccc1 | > 25 µM | > 25 | – | –
26 | O=C(COC(=O)C1CC1)c1c[nH]c2ccccc12 | 1.15 µM and 2.08 µM | > 6.25 | > 25 µM | –
27 | COC(=O)c1c(C)[nH]c2ccccc12 | > 25 µM | > 25 | – | –
28 | CCc1ccc2nc(/N=C(\N)NC(=O)c3ccccc3)nc(C)c2c1 | 1.86 µM | > 12.5 | > 25 µM | 0.82 µM (inactive)
29 | N/C(=N\c1nc2ccccc2o1)NC(=O)c1ccc(F)cc1 | 21.6 µM | > 25 | > 25 µM | 9.64 µM (inactive)
30 | O=C(Nc1ccccc1)Nc1csc2ccccc12 | 5.5 µM and 1.82 µM | > 25 | > 25 µM | –
31 | Cc1ccc(C(C)C)c(OCC(=O)Nc2nc3ccccc3s2)c1 | > 25 µM | > 25 | – | –
32 | CC(=O)Nc1ccc2nc(NC(=O)COc3ccccc3)sc2c1 | > 25 µM | > 25 | – | –
33 | Cc1ccc(OCC(=O)Nc2nnn(C)n2)c(C)c1 | > 25 µM | > 25 | – | –
34 | Cc1cc2cc(O)ccc2[nH]1 | > 25 µM | > 25 | – | –
35 | c1ccc(OCc2nnc(-c3ccccc3)o2)cc1 | > 18.8 µM and 15.3 µM | > 25 | > 25 µM | 15 µM (inactive)
36 | Cc1cc(C)c(OCC(=O)Nc2nc3ccccc3[nH]2)c(C)c1 | > 18.8 µM and 7.46 µM | > 25 | > 25 µM | 5.55 µM (inactive)
37 | N/C(=N\c1nc2ccccc2o1)NC(=O)c1ccccc1Br | 8.26 µM | > 25 | > 25 µM | –
38 | CCOC(=O)c1cnc2cc(-c3ccc(C(C)(C)C)cc3)nn2c1N | 1.15 µM and 4.11 µM | > 25 | > 25 µM | 1.99 µM (inactive)
39 | Cc1ccccc1OCC(=O)Nc1ncn[nH]1 | > 25 µM | > 25 | – | –
40 | S=C(Nc1ccccc1)Nc1ccc(Cl)cn1 | > 18.8 µM and 17.3 µM | > 25 | > 25 µM | –
41 | N/C(=N\c1nc2cc(Cl)ccc2o1)NC(=O)c1ccccc1 | > 25 µM | > 25 | – | –
42 | COc1ccc2[nH]c(C)cc2c1 | > 25 µM | > 25 | – | –

Row | SMILES | IC50 [1] | IC90 [2] [µM] | IC90 [3] | IC50
43 | Cc1ccc2sc(NC(=O)COc3ccccc3)nc2c1C | 23.7 µM | > 25 | – | –
44 | N/C(=N\c1nc2ccccc2o1)NC(=O)COc1ccc2ccccc2c1 | > 25 µM | > 25 | – | –
45 | COc1ccc(Cl)cc1C(=O)Nc1nc2ccccc2[nH]1 | > 25 µM | > 25 | > 25 µM | 16.2 µM (inactive)
46 | CCOc1ccc2nc(NC(=O)C3(c4ccccc4)CCCC3)sc2c1 | 2.08 µM | 8.95 | 4.16 µM | 1.2 µM (inactive)
47 | O=C(COc1ccccc1)Nc1nc2ccccc2s1 | > 25 µM | > 25 | – | –
48 | Cc1cc2cc(F)ccc2[nH]1 | > 25 µM | > 25 | – | –
49 | COc1cccc(-c2ccc(-c3noc(-c4ccccc4F)n3)c(OC)n2)c1 | > 25 µM | > 25 | > 25 µM | > 25 µM (inactive)
50 | Cc1ccccc1OCC(=O)Nc1nnn(C)n1 | > 25 µM | > 25 | – | –
51 | CCOc1ccc2nc(NC(=O)COc3ccc(Cl)c(C)c3)sc2c1 | > 25 µM | > 25 | – | –
52 | CC(C)Cn1c2c(c(O)c(C(=O)Nc3nccs3)c1=O)CCCC2 | > 25 µM | > 25 | – | –
53 | c1ccc(Nc2ncnc3c2oc2ccccc23)cc1 | > 18.8 µM and 11.5 µM | > 18.8 | > 25 µM | > 18.8 µM (inactive) and 5.29 µM (inactive)
54 | COc1ccc2nc(NC(=O)COc3ccc(C)cc3)sc2c1 | > 25 µM | > 25 | – | –
55 | CC(Oc1ccc(Cl)cc1)C(=O)Nc1nc2ccccc2s1 (stereo not given) | > 25 µM | > 25 | – | –
56 | Cc1cccc(C)c1OCC(=O)Nc1nc2ccccc2s1 | > 25 µM | > 25 | – | –
57 | CC(=O)c1c(C)n(-c2ccc(C)cc2)c2ccc(O)cc12 | > 25 µM | > 25 | – | –
58 | COc1ccc2nc(NC(=O)COc3ccc(Cl)cc3)sc2c1 | > 25 µM | > 25 | – | –
59 | O=C(Nc1nc2ccccc2[nH]1)c1ccc(Cl)c(Cl)c1 | 1.9 µM | > 25 | > 25 µM | 0.81 µM (inactive)
60 | CC(C)(Oc1ccc(Cl)cc1)C(=O)Nc1nc2ccccc2s1 | > 25 µM | > 25 | – | –
61 | O=C(O)CCC(=O)Nc1nc2ccccc2s1 | > 25 µM | > 25 | – | –
62 | CC(=O)c1c(C)n(-c2ccccc2C)c2ccc(O)cc12 | > 25 µM | > 25 | – | –
63 | COc1ccc(C(=O)Nc2ccc3nc(N4CCCCC4)cc(C)c3c2)c(OC)c1 | > 25 µM | > 25 | > 25 µM | 17.6 µM (inactive)

Row | SMILES | IC50 [1] | IC90 [2] [µM] | IC90 [3] | IC50
64 | CC(Oc1ccccc1)C(=O)Nc1nc2ccc(S(C)(=O)=O)cc2s1 (stereo not given) | > 25 µM | > 25 | – | –
65 | Cc1cccnc1NC(=S)NC(=O)c1cncc(Br)c1 | 4.21 µM | > 25 | > 25 µM | 2.71 µM (inactive)
66 | Cc1ccccc1OCC(=O)Nc1ccccc1-c1ccccc1 | > 25 µM | > 25 | > 25 µM | 14.6 µM (inactive)
67 | CCOc1ccc2c(c1)cc(C)n2-c1ccccc1 | > 25 µM | > 25 | > 25 µM | 11.5 µM (inactive)
68 | CCOc1ccc2c(c1)c(C(C)=O)c(C)n2-c1ccccc1 | > 25 µM | > 25 | > 18.8 µM and 2.79 µM | –
69 | Cc1cc2ccccc2[nH]1 | > 25 µM | > 25 | – | –
70 | CCOc1ccc(NC(=O)COc2ccc(C)cc2C)cc1 | > 25 µM | > 25 | – | –
71 | CC(=O)c1c(C)n(-c2ccccc2)c2ccccc12 | > 25 µM | > 25 | > 25 µM | 11.6 µM (inactive)
72 | CCOc1ccc2c(c1)c(C(C)=O)c(C)n2-c1ccccc1Cl | > 25 µM | > 25 | > 25 µM | 13.6 µM (inactive)
73 | COc1cccc(NC(=S)Nc2cc(C)cc(C)n2)c1 | 14.4 µM | > 25 | > 25 µM | 7.2 µM (inactive)
74 | Cc1ccc2oc(/N=C(\N)NC(=O)c3ccccc3)nc2c1 | > 25 µM | > 25 | – | –
75 | CC(=O)c1c(C)n(-c2ccccc2)c2ccc(OS(=O)(=O)C(F)(F)F)cc12 | > 25 µM | > 25 | > 25 µM | > 25 µM (inactive)
76 | O=C(COc1ccc2ccccc2c1)Nc1nc2ccccc2[nH]1 | > 18.8 µM and 15.5 µM | > 25 | > 25 µM | > 18.8 µM (inactive) and 8.87 µM (inactive)
77 | Cc1ccc(OCC(=O)Nc2nc3c(Cl)cccc3s2)cc1 | > 25 µM | > 25 | – | –
78 | COc1ccc2nc(NC(=O)c3oc4ccccc4c3C)sc2c1 | > 25 µM | > 25 | – | –
79 | CC(=O)Nc1ccc2nc(NC(=O)Cc3ccccc3)sc2c1 | > 25 µM | > 25 | – | –
80 | Cc1onc(-c2c(Cl)cccc2Cl)c1/C(N)=N/OC(=O)C1CC1 | 14.7 µM | > 25 | > 25 µM | –
81 | Cc1ccc(OCC(=O)Nc2cccc3ncccc23)c(C)c1 | > 25 µM | > 25 | – | –
82 | COc1ccccc1C(=O)N/C(N)=N/c1nc2ccccc2o1 | > 25 µM | > 25 | – | –
83 | CCC(CC)c1nnc(NC(=O)c2ccc(N3CCCCC3)c([N+](=O)[O-])c2)s1 | > 25 µM | > 25 | – | –
